The source of these data is patent US5264556A, “Monoclonal antibodies for measuring okadaic acid” (priority 1992, dated 1993).

One data set deals with 6/50 antibody. Put plainly: Cross-reactivity of 6/50 antibody with OA analogues in competitive ELISA (FIG. 9). The conditions noted are these: toxins in 40% MEOH. The data set is classed as binding, mouse. The protocol:
FIG. 9A Assay wells were coated with OA and incubated with a fixed concentration of 6/50 IgG and varying amounts of each toxin in 40% MEOH.
FIG 9B & 9C Assay wells were coated with purified antiidiotypic antibody (1/59) F(ab')2 fragments (5 μg/ml) and incubated with a fixed concentration of mAb 6/50 (100 ng/ml) and varying amounts of OA analogues in 40% MEOH.
In FIG. 9A, the assay wells were coated with OA and incubated with a fixed concentration of 6/50 IgG and varying amounts of each toxin in 40% MEOH. Bound antibody was detected with HRP-conjugated anti-mouse IgG. Toxins used in this competitive ELISA were generously donated by Dr. Takeshi Yasumoto (Tohoku University, Japan).
For FIG. 9B and 9C, the assay wells were coated with purified anti-idiotypic (1/59) F(ab')2 (5μg/ml) and incubated with a fixed concentration of antibody 6/50 (100 ng/ml) and varying amounts of okadaic acid analogues in 40% MEOH. Bound 6/50 IgG was detected with HRP-conjugated anti-mouse IgG Fc fragment specific antisera.
A general note: ELISA stands for enzyme-linked immunosorbent assay.

Data set [1] has as its target protein phosphatase-1 (PP1) catalytic subunit. The data set is described as follows: Standard phosphorylase a phosphatase assay, PP1. The format is biochemical, rabbit. The note with it: standard commercial preparation of okadaic acid; read-out: IC50 for PP1 inhibition. The protocol: (§1) The biological activity of OA was assayed by the ability of this toxin to inhibit dephosphorylation of ^32 P-radiolabelled glycogen phosphorylase (E.C. 2.4.1.1) by protein phosphatases (E.C. 3.1.3.16) in the standard phosphorylase phosphatase assay.
(§2) Phosphorylase (50 mM) is dialyzed extensively against NaF (15 mM) to block endogenous phosphatase activity. The protein is diluted to 3 mg/ml (30 pmol/μl ) in Tris HCl (50 mM, pH 7.0) containing ethylenediamine tetra-acetic acid (EDTA, 0.1 mM), bovine serum albumin (1 mg/ml), 2-mercaptoethanol (0.2% v/v) and caffeine (15mM). An incubation comprising 10 μl protein phosphatase-1 or -2A (PP2A, 1 mU/ml in Tris HCl, pH 7.0) and 10 μl phosphatase inhibitor (in Tris HCl, pH 7.0) is carried out for 10 minutes at 30° C. An aliquot (10 μl) of phosphorylase (30 pmol/μl, specific radioactivity >0.6×10^6 dpm/nmol) is added to start the reaction, which is terminated after 10 minutes by adding 200 μl trichloroacetic acid (20% w/v,TCA). The suspension is vortexed, stood on ice for 1 minute and centrifuged at 15,000g for 2 minutes. An aliquot (200 μl) of supernatant is added to 1 ml scintillant and counted. One milliunit(mU) of protein phosphatase activity releases 1 nmol phosphate from phosphorylase per minute. […]

The test system of another data set is 6/50 IgG. The data set is described as follows: Competitive ELISA, Example IV: solid-phase OA versus free OA for binding to 6/50 IgG. Details: species or system mouse. The note with it: OA standards 0-30 ng/ml in 10% MeOH. Here is the method:
This assay is based on the competition between solid-phase attached OA and free OA (analyte) for binding to a limited number of binding sites on 6/50 IgG in solution.
Thus, 96-well microtiter plates are coated with 100 μl of OA-OVAL (10 μg/ml) in 0.05M sodium carbonate bicarbonate buffer, pH 9.6, overnight at 4° C. The unbrund OA-OVAL is washed off with Tris-buffered saline and the remaining binding sites are saturated with 200 μl of TS-MILK for one hour at 37° C. After washing, the wells are incubated simultaneously with 50 μl of OA standards (0-30 ng/ml) diluted in 10% MeOH and applied in the presence of 50 μl of limiting amounts of 6/50 IgG for one hour at 37° C. After the unbound antibody and antigen are washed off, 100 μl of a peroxidase conjugated goat anti-mouse IgG antiserum diluted in TS-MILK is added and incubated for one hour at 37° C.
Ihe colorimetric reaction is developed upon the add:tion of 0.03% H2 O2 in 0.1 M sodium citrate buffer, pH 7.0, containing 0.1% OPD. The reaction is stopped with 3 N H2 SO4 and the color intensity measured at a wavelength of 492 nm using a BioRad ELISA reader.

For data set [2], the target named is T1, protein phosphatase-2A (PP2A) catalytic subunit (Oryctolagus cuniculus, UniProt P67777).
T1 construct: Homogeneous PP-1 and -2A catalytic subunits are purified from rabbit skeletal muscle; from tissue; host or cells: rabbit skeletal muscle
T1 sequence (P67777 whole entry): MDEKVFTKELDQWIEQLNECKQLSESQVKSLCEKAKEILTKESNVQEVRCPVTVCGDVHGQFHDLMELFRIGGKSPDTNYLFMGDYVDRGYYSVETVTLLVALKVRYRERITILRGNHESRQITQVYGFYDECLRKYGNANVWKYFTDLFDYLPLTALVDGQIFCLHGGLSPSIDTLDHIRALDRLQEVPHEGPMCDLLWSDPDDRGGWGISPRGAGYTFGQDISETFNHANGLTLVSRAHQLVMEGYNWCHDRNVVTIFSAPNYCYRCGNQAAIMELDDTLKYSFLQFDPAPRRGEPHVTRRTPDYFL
Put plainly: Standard phosphorylase a phosphatase assay, PP2A. The format is biochemical, rabbit. The conditions noted are these: standard commercial preparation of okadaic acid; read-out: IC50 for PP2A inhibition. Here is the method:
as §1, §2

The next data set is described as follows: Solubility of OA. The data set is classed as physicochemical. The source says: It is obvious that methanol has a deleterious effect on 6/50 IgG binding to OA since the sensitivity of OA detection in the presence of 40% MeOH drops considerably when compared with 10% MeOH content. The addition of 10% MeOH seems to be the optimal for this assay. Absence of MeOH decreases OA solubility and thus the slope of the standard curve.

The test system of data set [3] is F(ab')2 fragments of 6/50 IgG. The data set is described as follows: Competition ELISA, Example II: free OA versus 1/59 IgG for binding to solid-phase 6/50 F(ab')2. Also noted: species or system mouse. The note with it: free OA 0-10 μg/ml in 10% MeOH, 1/59 500 ng/ml. Here is the method:
In the reverse assay, 96-well microtiter plates are coated with 100 μl of 10 μg/ml of F(ab')2 fragments of 6/50 IgG in 0.05M sodium carbonate bicarbonate buffer, pH 9.6, overnight at 4° C. The unbound F(ab')2 fragments are washed off with Tris-buffered saline and the remaining binding sites are saturated with 200 μl of 1% powdered-milk in Tris-saline (TS-MILK) for one hour at 37° C. After washing, the wells are incubated simultaneously with 50 μl of a fixed amount of anti-idiotypic IgG 1/59 (500 ng/ml) and 50 μl of free OA diluted in 10% methanol (MeOH) at increasing concentrations (0-10 μg/ml) for one hour at 37° C. After the unbound antibody and antigen are washed off, 100 μl of a peroxidase conjugated goat anti-mouse IgG Fc-fragment-specific antiserum is added for one hour at 37° C.
The colorimetric reaction is developed upon the addition of 0.03% H2 O2 in 0.1 M sodium citrate buffer, pH 7.0, containing 0.1% OPD. The reaction is stopped with 3 N H2 SO4 and the color intensity measured at a wavelength of 492 nm using a BioRad® ELISA reader.

The structures appear in SMILES notation. pIC50: −log10 of the molar value.

`C=C1C(O)C2OC3(CCC(C=CC(C)C4CC(C)=CC5(OC(CC(C)(O)C(=O)O)CCC5O)O4)O3)CCC2OC1C(O)CC(C)C1OC2(CCC1C)OCCCC2C` (stereo not shown) [DTX-1, 35-methyl-okadaic acid]: in the data set on 6/50 antibody, the “binding to 6/50 antibody relative to okadaic acid (cross-reactivity)” value is “significantly lower affinity”.

Usually pIC50 stands for −log10 of the IC50, conventionally taken in molar units. On to `C=C1[C@@H](O)[C@@H]2O[C@]3(CC[C@H](/C=C/[C@@H](C)[C@@H]4CC(C)=C[C@@]5(O[C@H](C[C@@](C)(O)C(=O)O)CC[C@H]5O)O4)O3)CC[C@H]2O[C@@H]1[C@@H](O)C[C@H](C)[C@H]1O[C@@]2(CCCCO2)CC[C@H]1C` [okadaic acid], for which the pIC50 in data set [1] is 7.72; in data set [2], 9.70. In addition, the “competition with solid-phase fixed OA for binding to 6/50” value in the data set on 6/50 IgG is on record as “dose-dependent manner”. Moreover, the solubility result in “Solubility of OA” is given as “only soluble in the presence of organic solvents”. In addition, the “inhibition of 1/59 IgG binding to solid-phase bound 6/50 IgG F(ab')2” value in data set [3] was “clearly inhibited”.

On to `C=C1C(C(CC(C)C2OC3(CCCCO3)CCC2C)OC(C)=O)OC2CCC3(CCC(C=CC(C)C4CC(C)=CC5(OC(CC(C)(OC(C)=O)C(=O)O)CCC5OC(C)=O)O4)O3)OC2C1OC(C)=O` (stereo not shown) [tetra acetyl okadaic acid], for which the “binding to 6/50 antibody relative to okadaic acid (cross-reactivity)” value with 6/50 antibody is “significantly lower affinity”.
